Laboratory results from patent US20250375458A1, “COMPOSITIONS AND METHODS TO COMBAT MULTIDRUG-RESISTANT AND […]-CELL-MEDIATED, O[…] INFECTIOUS DISEASES” (Theralase Technologies, Inc., priority 2024, published 2025).

How the values were obtained:
[1] = system: human Herpes Simplex 1 (HSV-1) virus; test: HSV-1 virus yield in A549 host cells by plaque forming assay, with Bliss synergy score; format: cell-based; settings: for HSV-1 yield suppression, single agent: A549 host cells, MOI 0.3, three days, 50 nM RUVIDAR or RUTHERRIN, 1 μM Acyclovir, 0.2% DMSO
Method: A549 human lung cancer cells are used as a host for virus growth, treatment, and later survival quantification. A549 cells are plated overnight, then incubated for 4 hours with or without 50 nM RUVIDAR or RUTHERRIN, with or without 1 μM Acyclovir or 0.2% DMSO (concentration non-toxic for the host cells). After the initial incubation of the host cells with the compounds, the cells are infected with the human Herpes Simplex 1 (HSV-1) virus at the multiplicity of infection (MOI)=0.3 and further incubated for three days (the mentioned compounds are still present in the culture media over the full course of incubation). After that, supernatant is harvested, centrifuged to remove debris, and the yield of infectious virus is determined by plaque forming assay (PFA) using supernatant for the host cells infection. The formed plaques are counted, and virus titer is calculated as Plaque Forming Units/mL=(Plaques number*Dilution)/Volume of Virus Inoculum. Titers normalized for control titer (untreated HSV-1 and host cells) produce relative virus yield (which is equivalent to inhibition rate).
The data are presented as virus yield normalized to Control. To estimate synergistic effect of two combined compounds, synergy Bliss score was calculated, as the difference between the actual inhibiting effect of the combination and the predicted inhibiting effect under “no synergy” assumption (Bliss score): Synergy score=Inhibition_RateCompound1 & Compound2−(Inhibition_RateCompound1+Inhibition_RateCompound2−Inhibition_RateCompound1* Inhibition_RateCompound2).

CD47 [2] = test: CD47 expression by flow cytometry in T24 cells; format: cell-based, human; settings: 3 μM for 2 days, MFI normalized to untreated cells
Method: (§1) In the tests whose results are shown in FIGS. 8A and 8B, T24 human bladder cancer cells or U87 human glioma cells were treated with 3 μM of RUVIDAR or RUTHERRIN for 2 days, and cells were collected and stained with fluorescent-labelled antibodies to CD47 and PD-L1 and analyzed by flow cytometry. MFI was normalized to control untreated cells and expressed as percentage of change.

CD47 [3] = test: CD47 expression in A549 cells, RUVIDAR or RUTHERRIN with or without ionizing radiation; format: cell-based, human; settings: 3 μM
Method: In the tests whose results are shown in FIGS. 8C and 8D, U87 human glioma cells or A549 lung cancer cells were treated with 3 μM of RUTHERRIN or RUVIDAR prior to drug activation by 530 nm laser light (photodynamic therapy, PDT) or ionizing radiation. Cells were then collected and stained with fluorescent antibody to CD47 and analyzed by flow cytometry. MFI was normalized to control untreated cells and expressed as percentage of change.

[4] = system: U87 human glioma cancer cells; test: Presto Blue cell survival, RUVIDAR with or without N-acetylcysteine; format: cell-based; settings: overnight
Method: U87 human glioma cancer cells were plated overnight, then treated with different doses of RUVIDAR in the presence or absence of N-acetylcysteine, a known ROS scavenger to quench the increase in ROS production. Cells were incubated overnight, and cell survival was analyzed using Presto Blue assay.

PD-L1 = PD-L1 expression by flow cytometry in T24 cells; format: cell-based, human; settings: 3 μM for 2 days, MFI normalized to untreated cells
Method: as §1

[5] = system: A549 human Non-Small Cell Lung Cancer cells; test: Hoechst 33342 dye accumulation by flow cytometry (MFI); format: cell-based; settings: 3 μM 4 hours, then Hoechst 33342 1 hour
Method: (§2) Hoechst 33342 is a nuclear dye commonly used to quantify drug efflux dynamics and drug accumulation in cells. […] Cells were then collected, and the MFI was determined by flow cytometry.

U87 human glioma cells = test: as above; format: cell-based; settings: 3 μM 4 hours, then Hoechst 33342 1 hour
Method: as §2

[6] = 50 nM RUVIDAR or RUTHERRIN plus 1 μM Acyclovir
[7] = 50 nM RUVIDAR or RUTHERRIN plus 0.2% DMSO

CD47, sequence (Q08722 19-323): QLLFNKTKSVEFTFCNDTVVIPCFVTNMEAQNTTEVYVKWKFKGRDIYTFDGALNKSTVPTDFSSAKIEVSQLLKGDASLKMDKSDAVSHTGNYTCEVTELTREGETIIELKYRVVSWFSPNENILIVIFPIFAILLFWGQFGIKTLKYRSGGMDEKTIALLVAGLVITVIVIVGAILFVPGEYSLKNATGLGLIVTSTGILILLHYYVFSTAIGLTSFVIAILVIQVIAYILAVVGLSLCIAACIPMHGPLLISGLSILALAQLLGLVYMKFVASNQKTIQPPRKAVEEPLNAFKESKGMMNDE
PD-L1, sequence (Q9NZQ7 19-290): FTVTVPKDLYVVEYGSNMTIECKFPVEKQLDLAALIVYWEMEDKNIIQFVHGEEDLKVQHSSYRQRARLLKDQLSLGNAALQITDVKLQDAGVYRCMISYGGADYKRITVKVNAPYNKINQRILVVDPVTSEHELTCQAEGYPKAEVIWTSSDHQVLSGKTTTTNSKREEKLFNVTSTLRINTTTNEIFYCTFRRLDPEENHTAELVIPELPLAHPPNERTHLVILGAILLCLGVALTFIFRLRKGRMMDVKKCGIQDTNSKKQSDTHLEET

| Molecule | HSV-1 yield suppression, single agent [1] | HSV-1 yield suppression, combined with Acyclovir [1, 6] | synergy score (Bliss), combined with Acyclovir [1, 6] | HSV-1 yield suppression, combined with DMSO [1, 7] | synergy score (Bliss), combined with DMSO [1, 7] | percentage change in expression of CD47 (CD47 [2]) | percentage change in CD47 expression, drug alone (CD47 [3]; no radiation) | percentage change in CD47 expression, with ionizing radiation (CD47 [3]; then ionizing radiation) | cell kill percent ([4]; RUVIDAR only, different doses) | cell kill percent in the presence of N-acetylcysteine ([4]; RUVIDAR plus ROS scavenger N-acetylcysteine) | percentage change in expression of PD-L1 (PD-L1) | Hoechst 33342 dye accumulation (MFI) [5] | Hoechst 33342 dye accumulation (MFI) (U87 human glioma cells) |
| --- | --- | --- | --- | --- | --- | --- | --- | --- | --- | --- | --- | --- | --- |
| Nc1nc2c(ncn2COCCO)c(=O)[nH]1 [Acyclovir, reference compound] | anti-viral effect to various degrees | – | – | – | – | – | – | – | – | – | – | – | – |
| C[S+](C)[O-] [DMSO] | anti-viral effect to various degrees | – | – | – | – | – | – | – | – | – | – | – | – |
| Ru(4,4′-dimethyl-2,2′-bipyridine)2(2-(2′,2″:5″,2″-terthiophene)-imidazo[4,5-f][1,10] phenanthroline) [RUVIDAR] | anti-viral effect to various degrees | significantly potentiated | 0.040±0.013 | significantly potentiated | 0.030±0.010 | significantly reduced | significantly reduced | more significant reduction | dose-dependent increase in cell kill | significantly reduced | significantly reduced | increases dye accumulation inside the cells | increases dye accumulation inside the cells |
